Several values for one entry are separate records, joined by “and”; a condition that tells them apart may be missing. Equal entries are not always repeated.
How the values were obtained:
HepG2 cells = assay: Estimation of cellular respiration by measuring cellular ATP levels in HepG2 cells; type: cell-based, Human; conditions: for Cellular ATP / Percentage enhancement of cellular ATP levels over control: HepG2, 2 hours treatment
Procedure: The test substances were evaluated for their in vitro effect on cellular energy by measuring cellular ATP levels in human Hepatocytes (HepG2) cell line.
HepG2 cells were trypsinized from stock culture flasks and the cell count was adjusted to 1.0×10^5 cells/ml to obtain a cell suspension that was seeded into a 96-well plate. […] After 2 hours of treatment, the plate was washed with phosphate buffer saline. The cellular ATP levels determination was performed according to the instructions given in the kit manual (SIGMA, #MAK190). At the end of the experiment, the optical density was read at 570 nm using microplate reader. From the absorbance values, the cellular ATP levels were estimated using kit protocol and the concentration of cellular ATP in treated groups were determined in comparison to the control groups.

[1] = test system: HepG2 (Human Hepatocyte) cell line; assay: In vitro cytotoxicity by MTT colorimetric assay on HepG2 cell line; type: cell-based; conditions: for % Inhibition: 72 hours incubation
Procedure: The in vitro cytotoxicity study was performed on HepG2 (Human Hepatocyte) cell line to find a nontoxic concentration of the test substances by MTT colorimetric assay and evaluate their potential on cellular respiration by measuring cellular ATP levels.
About 10 mg of all the test substances (as indicated in Table 1) were separately dissolved with 100 μl of Dimethyl sulfoxide (DMSO) and volume was made up with Dulbecco's Modified Eagle Medium-High glucose (DMEM-HG) supplemented with 2% inactivated Fetal Bovine Serum (FBS) to obtain a stock solution of 1 mg/ml concentration and sterilized by 0.22p, syringe filtration. Serial two-fold dilutions were prepared from the stock for carrying out further studies.
The monolayer cell culture was trypsinized and the cell count was adjusted to 1.0×10^5 cells/ml using Ham's F12 medium containing 10% FBS to obtain a cell suspension. To each well of the 96 well microtitre plate, 0.1 ml of the diluted cell suspension was added. After 24 hours, when a partial monolayer was formed, the supernatant was flicked off, the monolayer was washed once with medium and 100 μl of different concentrations of test substances were added. The plate was then incubated at 37° C. for 72 hours in a 5% CO2 atmosphere, and microscopic examination was carried out and observations were noted every 24 hours.
After 72 hours of incubation, the drug solutions in the wells were discarded and 50 μl of MTT in PBS was added to each well. The plate was gently shaken and incubated for 3 hr at 37° C. in a 5% CO2 atmosphere. The supernatant was removed and 100 μl of 2-propanol was added and the plate was gently shaken to solubilize the formed formazan. The absorbance was measured using a microplate reader at a wavelength of 540 nm. The percentage growth inhibition was calculated using the standard formula. The concentration of test substances needed to inhibit the growth of the cell by 50% i.e., CTC50 values were generated from the dose-response curves.

[2] = along with H2O2 (20 μM) (IMP 500 μg/ml, NMN 250 μg/ml, IMP + NMN 500 + 250 μg/ml)
[3] = substance alone (IMP 500 μg/ml, NMN 250 μg/ml, IMP + NMN 500 μg/ml, H2O2 20 μM)

| Compound | Cellular ATP (HepG2 cells; [2]) | Percentage enhancement of cellular ATP levels over control (HepG2 cells; [2]) | Cellular ATP (HepG2 cells; [3]) | Percentage enhancement of cellular ATP levels over control (HepG2 cells; substance alone (IMP 500 μg/ml, NMN 250 μg/ml, IMP + NMN 2:1 500 μg/ml), over hydrogen peroxide control) | Percentage enhancement of cellular ATP levels over control (HepG2 cells; substance alone (IMP 500 μg/ml, NMN 250 μg/ml, IMP + NMN 2:1 500 μg/ml), over hydrogen peroxide control, listed as G4) | cellular ATP levels (in words) (HepG2 cells; HepG2, in combination with Hydrogen peroxide (20 μM)) | % Inhibition ([1]; test conc. 62.5 μg/ml) | % Inhibition ([1]; test conc. 125 μg/ml) | % Inhibition ([1]; test conc. 250 μg/ml) | % Inhibition ([1]; test conc. 500 μg/ml) | % Inhibition ([1]; test conc. 1000 μg/ml) | CTC 50 ([1]; 72 hours, concentration needed to inhibit cell growth by 50%) |
| --- | --- | --- | --- | --- | --- | --- | --- | --- | --- | --- | --- | --- |
| NC(=O)c1ccc[n+]([C@@H]2O[C@H](COP(=O)([O-])O)[C@@H](O)[C@H]2O)c1 [NMN, β-Nicotinamide mononucleotide] | 8.28 ± 0.65 nmol | 29.01 ± 4.25% | 4.43 ± 0.23 nmol | 13.97±1.25% | 13.97 ± 1.25% | increased the cellular ATP levels significantly | 2.26 ± 1.49% | 21.59 ± 1.89% | 30.51 ± 0.38% | 59.95 ± 1.78% | 76.59 ± 0.54% | 415 ± 8.99 µg/mL and 415.92 ± 8.99 µg/mL |
| Hydrogen Peroxide [Composition G2] | – | – | 0.86 ± 0.02 nmol | – | – | – | – | – | – | – | – | – |

From patent US11491175B2, “Synergistic bioactive compositions for enhancing cellular energy” (CELAGENEX RESEARCH (INDIA) PVT. LTD., priority 2019, dated 2022)
